B1: AAT9-2-a: inactive variant of the alcohol acyl transferase from Citrus bergamia, SEQ ID NO: 8 (protein, listed as Citrus bergamia)
chain: MKISVETISREMIKPSTPTPNHLRHYHFSYLDQTAPPLYMSLLYFYHLDDHKLVSNNNHLFINSLKSSLSNVLTKYYPLAGRVKNNYVDCNDEGVVFSEAKVSCLLSEIINELPSEFNKLHPFDQEKDVVSINGLPIAIQVNMFNCGSVAIAVMIFHKIADAASLITFTKNWAAAARGGSGNVFPEFVAARLFPPQDAGGSSGVSVDPRPKKIVLKKFLFEGPKITALRDKYGLDNGIYPTRVEALSAFIWSRLAASTRIKISPERPYMLVHLVNLRKRMEPPLPDDSFGNIIGAAVTVLEENDDDDRMVNKFRDAICKVDKDYLKVMKLEHSELTDLVITNGEIVDRGELGYCFFSSLCKFPVYEADFGLGKPMWVAWGRLPYKNIIHLIDTKSGDGIEAWIHLEEEVMAKFGNDQELLAYVSP
B2: AAT9-1-c: alcohol acyl transferase (AAT) from Citrus bergamia, variant AAT9-1-c, amino acid sequence SEQ ID NO: 2 (protein, listed as Citrus bergamia)
chain: MKIDVETISREMIKPSTPTPNHLRHYQFSHLDQIGPPFYISLLYFYHLDDDKLVSNNRHLFSDSLKSSLSNVLTKYYPLAGRIKNNYVDCNDEGVFFSEAKVSCQLSEIINEPEFPSEFKKLLPFDQEKDVVSFDSLAIAIQVNMFNCGNVAVAVMISHKIADGSSLSTFTKNWAAAARGESENVFPEFVAARLFPPEDAGGGSGTSFDPRPKKVVLKKFLFEGSKITALRDKYGFDNRIYPTRVEALSAFLWSRLAASNRIKVSSERPCMLIHAVNLRKRVEPQLPADSFGNLFAFAVTVLDENDDDGMVNKFRDAISKIDKDYLKAKKVEHSELIDLGITNGEKFGGGELGYCIISSLCKFPVYEADFGLGKPTWVAWGCFPYKNVIHFIDAKSGDGIEVWVHLEKEVMAKFENDQELLAYVST
B3: AAT9-1-a: inactive variant of the alcohol acyl transferase from Citrus bergamia, Tryptophan at position 371, SEQ ID NO: 6 (protein, listed as Citrus bergamia)
chain: MKIDVETISREMIKPSTPTPNHLRHYQFSHLDQIGPPFYISLLYFYHLDDDKLVSNNRHLFSDSLKSSLSNVLTKYYPLAGRIKNNYVDCNDEGVFFSEAKVSCQLSEIINEPEFPSEFKKLLPFDQEKDVVSFDSLAIAIQVNMFNCGNVAVAVMISHKIADGSSLSTFTKNWAAAARGESENVFPEFVAARLFPPEDAGGGSGTSFDPRPKKVVLKKFLFEGSKITALRDKYGFDNRIYPTRVEALSAFLWSRLAASNRIKVSSERPCMLIHAVNLRKRVEPQLPADSFGNLFAFAVTVLDENDDDGMVNKFRDAISKIDKDYLKAKKVEHSELIDLGITNGEKFGGGELGYCIISSLCKFPVYEADFWLGKPTWVAWGCFPYKNVIHFIDAKSGDGIEVWVHLEKEVMAKFENDQELLAYVST
B4: SEQ ID NO: 3: alcohol acyl transferase (AAT) from Lavandula angustifolia, internal designation 10056 (protein, listed as Lavandula angustifolia)
chain: MEIETRVISTEIIKPSSPTPKFLQNHRLSFLDQIAPPIFMPVVYFYESNTKFPNSQQSNHLKNSLSQVLTKFYPLAGRLVGNLYVDCDDGGVPFVEAEANFDLSQIITNPNPRNMSKFLPYNESHDFCMAVQATYFRCGGVAVGLLVSHKIADALSFFLFANFWSAVARSGEGGGGQPPKFDVATYFPPRDISGYEPSTGIMKEEITTRIFTFSDKKIAVLREKYAATGSGGDGDLPQRRPTRVEALSAFIWTRFINSTGVKSDPNKIYTVMHAVNLRTRTDPPLTEYHFGNISRLAIANPDVGESGVTDGGVELMQRVREAIKAVDGAYVADLKEGEKHLSLMREKMAQANKGELVSFSFTSLCRFPLYDADFGWGKPVWVGSAGFAYKNLVTFMDTRDGDGIEAWIHSRREDMEKFEVDLELQDFLSHDKSSLISLV
B5: SEQ ID NO: 4: alcohol acyl transferase (AAT) from Lavandula angustifolia, internal designation 1461 (protein, listed as Lavandula angustifolia)
chain: MEIEILSKQSIKPSSLTPSQLRDFKLSFIDERIPPFYIPLILYYTFDEQTNVNQSEMSDRLKTSLADALAKFYPLAGRMKGQISVDCNDQGVLCTEAIANANVLDIVSSPDPLVLDKLIPYVTNGFVSSAQEQLAIQITSFNCGGISIGICFSHRIADASTLSSFIKYWAATACRDRISAVSPVFNSATLFPPRNTPDFTPNPTSPSVRPLAPNLVIKRFLFSSQSINAMKLEVSRNSRILNPTRVEVVTALIWNRCVVAKGIERSNRSVAYHTLNLRGKIPALSERSFGNLFQMIKVESEAETTWILLVEKLRSAFEGFDVKKQLLGEKGFENAKENFMEISQLLRAGNVEVFRFSSYCRLAVYEADFGWGKPVWVSNSCYRNKNCVFLFDSVGSRGGIEAWIVMSERDMERLEQDLEFKRFASF

The text below walks through data of patent US20240102060A1, “ENZYMES AND METHODS FOR FERMENTATIVE PRODUCTION OF MONOTERPENE ESTERS” (ISOBIONICS B.V., priority 2020, published 2024).

System in the first data set: not listed separately
As to the kind of experiment: Conversion of linalool to linalyl acetate by E. coli BL21-RIL expressing Citrus bergamia AAT variants, GC FID. The note with it: dodecane with 5 mM linalool (racemic), overnight at 18° C. Format: cell-based. How it is done: To this end, the three different variants, and an empty pACYC-DUET-1, were introduced into chemical competent E. coli BL21-RIL (Stratagene), by heat shock transformation, and selected on LB-agar with 1% glucose and […] chloramphenicol. Transformants were transferred to 5 ml LB liquid medium with 1% glucose and 50 ug/ml chloramphenicol and grown overnight at 37° C. and 250 rpm.
(§1) 200 μL of those cultures was transferred to 20 mL of LB medium with the appropriate antibiotic in a 100 mL Erlenmeyer flask, and incubated at 37° C., 250 rpm until the A600 was 0.4 to 0.6. […] The next day, dodecane layer was recovered by centrifugation (10 min at 8000×g), diluted in ethyl acetate and analysed by GC FID.
B1: the “conversion of linalool to linalyl acetate” value (from here on “conversion of linalool”) is on record as “could not be observed”. Consider B2, for which the “conversion of linalool” value is listed as “linalool was converted to linalyl acetate”. Turning to B3, the “conversion of linalool” value is “could not be observed”.

The test system of another data set is AAT9-1-c (SEQ ID NO: 2). As to the kind of experiment: Monoterpene and sesquiterpene alcohols tested in the presence of E. coli cells expressing AAT9-1-c. Format: cell-based. The conditions noted are these: E. coli cells expressing AAT9-1-c versus empty pACYCDUET-1. As for the experimental part:
as §1
Turning to `CC(C)=CCC[C@](C)(O)[C@@H]1CC=C(C)CC1` [(−)-alpha-bisabolol], the “conversion of the alcohol to its corresponding ester by AAT9-1-c” value (“conversion of the alcohol” for short) was “not observed to be converted”. Consider `CC1=CC[C@@H](C(C)(C)O)CC1` [alpha terpineol], for which the “conversion of the alcohol” value was “corresponding esters could be observed”.

For the molecule `C[C@@H]1CC[C@H]2C(C)(C)[C@H]3C[C@@]12CC[C@@]3(C)O` [cedrol], the “conversion of the alcohol” value is reported as “not observed to be converted”. In the case of `CC(C)=CCC/C(C)=C/CO` [geraniol], the “conversion of the alcohol” value is on record as “corresponding esters could be observed”.

As for `C=CC(C)(O)CCC=C(C)CCC=C(C)C` (stereo not drawn) [nerolidol], the “conversion of the alcohol” value is on record as “not observed to be converted”. On to `C[C@H]1CC[C@@]2(O)C(C)(C)[C@@H]3CC[C@@]2(C)[C@H]1C3` [patchoulol], for which the “conversion of the alcohol” value is given as “not observed to be converted”. Take `CC1=CC(O)C2CC1C2(C)C` (stereo not drawn) [verbenol]: the “conversion of the alcohol” value is “corresponding esters could be observed”.

System in the next data set: not listed separately
As to the kind of experiment: Initial test of Lavandula angustifolia alcohol acyl transferases on linalool.
Conditions: not given
With B4, the “linalool as a substrate” value is “may not prefer linalool as a substrate”. As for B5, the “linalool as a substrate” value is “may not prefer linalool as a substrate”.
